Data published in US10005776B2, “Compounds as NIK inhibitors” (Janssen Pharmaceutica NV, priority 2014, dated 2018).
pEC50, pIC50: −log10 of the molar value.

How the values were obtained:
[1] = target: Recombinant Human NF-kappaB-Inducing Kinase (NIK/MAP3K14) (Homo sapiens, UniProt Q99558); assay: Inhibition of auto-phosphorylation of recombinant human NIK/MAP3K14 (AlphaScreen); type: biochemical; settings: 25 microM ATP, 0.2 nM GST-tagged NIK/MAP3K14, 1 h at 25° C.; averaged over all measurements on all batches; read-out: Alpha-Screen IC50
Protocol: Inhibition of Auto-Phosphorylation of Recombinant Human NF-kappaB-Inducing Kinase (NIK/MAP3K14) Activity (AlphaScreen®)
NIK/MAP3K14 auto-phosphorylation activity was measured using the AlphaScreen® (αscreen) format (Perkin Elmer). All compounds tested were dissolved in dimethyl sulfoxide (DMSO) and further dilutions were made in assay buffer. Final DMSO concentration was 1% (v/v) in assays. Assay buffer was 50 mM Tris pH 7.5 containing 1 mM EGTA (ethylene glycol tetraacetic acid), 1 mM DTT (dithiothreitol), 0.1 mM Na3VO4, 5 mM MgCl2, 0.01% Tween® 20. Assays were carried out in 384 well Alphaplates (Perkin Elmer). Incubations consisted of compound, 25 microM Adenosine-5′-triphosphate (ATP), and 0.2 nM NIK/MAP3K14. Incubations were initiated by addition of GST-tagged NIK/MAP3K14 enzyme, carried out for 1 h at 25° C. and terminated by addition of stop buffer containing anti-phospho-IKK Ser176/180 antibody. Protein A Acceptor and Glutathione-Donor beads were added before reading using an EnVision® Multilabel Plate Reader (Perkin Elmer). Signal obtained in the wells containing blank samples was subtracted from all other wells and IC50's were determined by fitting a sigmoidal curve to % inhibition of control versus Log10 compound concentration.

[2] = tested on: JJN-3 cells; assay: Antiproliferative activity on JJN-3 cells (CellTiter-Glo); type: cell-based, human; settings: 72 hr treatment, averaged values
Protocol: (§1) Determination of Antiproliferative Activity on LP-1, L-363 and JJN-3 Cells
(§2) All compounds tested were dissolved in DMSO and further dilutions were made in culture medium. Final DMSO concentration was 0.3% (v/v) in cell proliferation assays. Viability was assessed using CellTiter-Glo cell viability assay kit (Promega). The human LP-1, L-363 and JJN-3 cells (DSMZ) were cultured in RPMI 1640 medium supplemented with 2 mM L-glutamine, and 10% fetal calf serum (PAA). Cells were routinely kept as suspension cells at 37° C. in a humidified 5% CO2 atmosphere. Cells were passaged at a seeding density of 0.2×10^6/ml twice a week. Cells were seeded in black tissue culture treated 96-well plates (Perkin Elmer). Densities used for plating ranged from 2,000 to 6,000 cells per well in a total volume of 75 μl medium. After twenty four hours, drugs and/or solvents were added (25 μl) to a final volume of 100 μl. Following 72 hr of treatment plates were removed from the incubator and allowed to equilibrate to room temperature for approx 10 min. 100 μl CellTiter-Glo reagent was added to each well that was then covered (Perkin Elmer Topseal) and shaken on plate shaker for 10 min. Luminescence was measured on a HTS Topcount (Perkin Elmer). Within an experiment, the results for each treatment were the mean of 2 replicate wells. For initial screening purposes, compounds were tested using a 9 point dilution curve (serial 1:3 dilutions). For each experiment, controls (containing no drug) and a blank incubation (containing cells read at the time of compound addition) were run in parallel. The blank value was subtracted from all control and sample values. For each sample, the mean value for cell growth (in relative light units) was expressed as a percentage of the mean value for cell growth of the control.

[3] = tested on: L-363 cells; assay: Antiproliferative activity on L-363 cells (CellTiter-Glo); type: cell-based, human; settings: 72 hr treatment, averaged values
Protocol: as §1, §2

[4] = tested on: LP-1 cells; assay: Antiproliferative activity on LP-1 cells (CellTiter-Glo); type: cell-based, human; settings: 72 hr treatment, averaged values
Protocol: as §1, §2

Sequence of Recombinant Human NF-kappaB-Inducing Kinase (NIK/MAP3K14) (Q99558 whole entry): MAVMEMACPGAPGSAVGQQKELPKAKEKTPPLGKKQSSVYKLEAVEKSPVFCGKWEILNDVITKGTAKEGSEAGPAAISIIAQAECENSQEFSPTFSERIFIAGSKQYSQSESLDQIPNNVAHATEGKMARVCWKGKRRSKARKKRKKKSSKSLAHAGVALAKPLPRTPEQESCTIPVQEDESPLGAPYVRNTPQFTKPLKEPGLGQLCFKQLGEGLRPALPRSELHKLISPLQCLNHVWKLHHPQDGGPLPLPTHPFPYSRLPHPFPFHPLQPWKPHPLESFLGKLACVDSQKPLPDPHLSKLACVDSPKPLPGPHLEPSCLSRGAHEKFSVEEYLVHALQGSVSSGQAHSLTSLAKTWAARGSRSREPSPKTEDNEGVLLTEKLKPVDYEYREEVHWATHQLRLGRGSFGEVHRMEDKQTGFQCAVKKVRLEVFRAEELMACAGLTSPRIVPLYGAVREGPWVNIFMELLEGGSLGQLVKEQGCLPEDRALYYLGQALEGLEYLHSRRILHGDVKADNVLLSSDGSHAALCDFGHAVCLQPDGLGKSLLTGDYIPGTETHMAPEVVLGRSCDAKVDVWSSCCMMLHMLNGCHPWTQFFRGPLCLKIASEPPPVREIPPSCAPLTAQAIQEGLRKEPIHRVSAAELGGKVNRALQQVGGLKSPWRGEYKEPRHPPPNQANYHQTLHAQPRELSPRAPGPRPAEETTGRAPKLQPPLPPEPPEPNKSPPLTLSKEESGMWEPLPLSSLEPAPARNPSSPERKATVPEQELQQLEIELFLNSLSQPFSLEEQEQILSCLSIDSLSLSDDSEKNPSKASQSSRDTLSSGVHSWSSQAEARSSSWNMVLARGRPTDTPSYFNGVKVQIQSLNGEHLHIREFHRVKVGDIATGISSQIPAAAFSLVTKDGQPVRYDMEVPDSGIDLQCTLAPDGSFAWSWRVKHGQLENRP

SMILES	pIC50 [1]	pEC50 ([2]; Homo sapiens, JJN-3, 72 h)	pEC50 ([3]; Homo sapiens, L-363, 72 h)	pEC50 ([4]; Homo sapiens, LP-1, 72 h)	pEC50 [2]	pEC50 [3]	pEC50 [4]
CC(O)(C#Cc1cc2c(-c3nc(N)ncc3F)c[nH]c2c(C2CC2)n1)C1CC1 (single isomer, unassigned) [Compound 13]	7.54	8.15	8.40	7.82			
[2H]C([2H])([2H])C(O)(C#Cc1cc2c(-c3nc(N)ncc3F)cn(C3CCCN(CCC)C3)c2cn1)C([2H])([2H])[2H] (single isomer, unassigned) [Compound 24]	7.05				6.87	6.93	6.66
[2H]C([2H])([2H])C(O)(C#Cc1cc2c(-c3nc(N)ncc3F)cn(C3CCCN(CCC)C3)c2cn1)C([2H])([2H])[2H] (single isomer, unassigned) [Compound 25]	7.09				6.99	7.18	6.79
CCCCN1CCC(n2cc(-c3nc(N)ncc3F)c3cc(C#CC(C)(O)C4CC4)ncc32)C1 (single isomer, unassigned) [Compound 26]	7.74	7.00	7.20	6.94			
CCCCN1CCC(n2cc(-c3nc(N)ncc3F)c3cc(C#CC(C)(O)C4CC4)ncc32)C1 (single isomer, unassigned) [Compound 27]	7.59				7.04	7.28	7.00
CC(O)(C#Cc1cc2c(-c3nc(N)ncc3F)cn(C3CN(C4CC4)C3)c2cn1)c1nccs1 (single isomer, unassigned) [Compound 28]	7.80			5.37	6.39	6.40	
CC(O)(C#Cc1cc2c(-c3nc(N)ncc3F)cn(C3CN(C4CC4)C3)c2cn1)c1nccs1 (single isomer, unassigned) [Compound 29]	6.13				5.71	5.51	5.45
CC(O)(C#Cc1cc2c(-c3nc(N)ncc3F)c[nH]c2cn1)c1nccs1 (single isomer, unassigned) [Compound 30]	7.70				5.68	5.32	4.94
CC(O)(C#Cc1cc2c(-c3nc(N)ncc3F)c[nH]c2cn1)c1nccs1 (single isomer, unassigned) [Compound 31]	8.70				6.20	5.92	5.24
Cc1cc(C(C)(O)C#Cc2cc3c(-c4nc(N)ncc4F)c[nH]c3cn2)no1 (single isomer, unassigned) [Compound 32]	6.42				5.36	5.26	4.71
Cc1cc(C(C)(O)C#Cc2cc3c(-c4nc(N)ncc4F)c[nH]c3cn2)no1 (single isomer, unassigned) [Compound 33]	8.52				6.23	6.33	5.39
CC(O)(C#Cc1cc2c(-c3nc(N)ncc3F)c[nH]c2c(C2CC2)n1)C1CC1 (stereo not drawn) [Compound 1]	7.02	8.10	8.40	7.72			
Cc1nc(C#CC(C)(O)C2CC2)cc2c(-c3nc(N)ncc3F)c[nH]c12 (stereo not drawn) [Compound 2]	8.15	8.15	8.30	7.41			
CC(C)N1CCC(n2cc(-c3nc(N)ncc3F)c3cc(C#CC(C)(O)C4CC4)ncc32)C1 (stereo not drawn) [Compound 3]	6.81	6.88	7.25	6.83			
CC(C)n1cc(-c2nc(N)ncc2OCCN2CCOCC2)c2cc(C#CC(C)(O)C3CC3)ncc21 (stereo not drawn) [Compound 4]	6.82	6.68	6.82	5.93			
CC(O)(C#Cc1cc2c(-c3nc(N)ncc3F)cn(C3CN(CCC(F)(F)F)C3)c2cn1)C1CC1 (stereo not drawn) [Compound 5]	7.13	6.64	6.76	6.42			
CCCN1CCC(n2cc(-c3nc(N)ncc3F)c3cc(C#CC(C)(O)C4CC4)ncc32)C1 (stereo not drawn) [Compound 6]	7.54	7.21	7.51	7.16			
COCCN1CCC(n2cc(-c3nc(N)ncc3F)c3cc(C#CC(C)(O)C4CC4)ncc32)C1 (stereo not drawn) [Compound 7]	7.59	6.65	6.84	6.49			
COCCCN1CCC(n2cc(-c3nc(N)ncc3F)c3cc(C#CC(C)(O)C4CC4)ncc32)C1 (stereo not drawn) [Compound 8]	7.52	6.92	7.10	6.80			
CC(O)C#Cc1cc2c(-c3nc(N)ncc3F)cn(C3CN(C4CC4)C3)c2cn1 (stereo not drawn) [Compound 9]	7.16	7.26	7.43	6.88			
CCN1CCC(n2cc(-c3nc(N)ncc3F)c3cc(C#CC(C)(O)C4CC4)nc(C)c32)C1 (stereo not drawn) [Compound 10]	7.24	7.66	8.00	7.70			
CCCCN1CCC(n2cc(-c3nc(N)ncc3F)c3cc(C#CC(C)(O)C4CC4)ncc32)C1 (stereo not drawn) [Compound 11]	7.68	7.21	7.40	7.28			
[2H]C([2H])([2H])C(O)(C#Cc1cc2c(-c3nc(N)ncc3F)cn(C3CCCN(CCC)C3)c2cn1)C([2H])([2H])[2H] (stereo not drawn) [Compound 12]	7.25				7.42	7.38	7.12
CC(O)(C#Cc1cc2c(-c3nc(N)ncc3F)cn(C3CN(C4CC4)C3)c2cn1)c1nccs1 (stereo not drawn) [Compound 14]	7.80	6.20	5.91	5.40			
Cc1nc(C(C)(O)C#Cc2cc3c(-c4nc(N)ncc4F)cn(C4CN(C5CC5)C4)c3cn2)no1 (stereo not drawn) [Compound 15]	6.84	5.49	5.57	4.84			
Cc1cc(C(C)(O)C#Cc2cc3c(-c4nc(N)ncc4F)cn(C4CN(C5CC5)C4)c3cn2)no1 (stereo not drawn) [Compound 16]	7.47	6.02	6.09	5.75			
CC(O)(C#Cc1cc2c(-c3nc(N)ncc3F)cn(C3CN(C4CC4)C3)c2cn1)c1ncccn1 (stereo not drawn) [Compound 17]	6.72	5.17	5.08	4.54			
